Test results as given in patent US9994509B2, “Inhibitors of viral replication, their process of preparation and their therapeutical uses” (HIVIH, priority 2013, dated 2018).

Tested on: NL4-3 strain of HIV-1
Assay: HIV-1 replication assay: cyto-protection of MT4 cells infected with NL4-3 virus, CellTiter-Glo viability readout
Format: cell-based
Conditions: Human immunodeficiency virus 1, NL43, 120 h; concentration leading to 50% of cyto-protection; MT4 cells infected with NL4-3 virus; 5 days incubation; CellTiter-Glo; read-out: EC50
Description: The antiviral activity, particularly against HIV, of compounds according to the invention is evaluated by the protocol described below.
Preparation of Virus stock of the NL4-3 strain of HIV-1 (Adachi et al, J Virol, 1986, 59(2):284-91).
The virus was prepared as described in Lopez et al (Lopez et al, Proc Natl Acad Sci USA., 2006, 103(40):14947-52, by transfecting 2×10^6 293 T cells (CRL-1573, ATCC) with following modifications: 6 μg of NL4-3 proviral DNA molecular clone were mixed with X-tremeGENE 9 DNA transfection reagent from Roche, and used according to manufacturer's instructions. Twenty four hours later, cells were washed and fresh medium added. Forty eight hours after transfection, cell supernatants were harvested, filtered through 0.45-μm-pore-size filters, quantified for HIV-1 p24 antigen by using an Innotest HIV antigen mAb assay (Ingen) according to manufacturer's instructions, and used in infection experiments.
Serial dilutions of compounds to be tested were prepared in complete RPMI medium from 10 mM DMSO stock solutions, and distributed in a volume of 20 μl in 96 well tissue-culture treated plates (Costar 3917), in order to get 0.5% DMSO final concentration in each well, after the addition of infected cells. Control wells contained also 0.5% DMSO final concentration but no compound.
MT4 cells (from the NIH AIDS Research and Reference Reagent Program) in RPMI complete medium were counted (10×10^6 cells per well in Falcon 353047 Multiwell™ 24 well) and infected for 2 hours at 37°, at a multiplicity of infection (moi) of 0.0001-0.00001. Cells were then centrifuged for 3 min at 3000 rpm, and washed two times in 1 ml PBS to remove viruses that have not entered the cells. Infected cells were resuspended in complete RPMI at 1.25×10^6 cells/ml, and 80 μl of infected cells were distributed in each well containing compounds to be tested or control wells. The plates were then incubated at 37° C. for 5 days.
Assay used to measure the inhibition of HIV replication by the compounds (according to Gregg S. Jones et al., Antimicrobial Agents and Chemotherapy, 2009, 53 (3): 1194-1203).
After 5 days of incubation, microplates were equilibrated to room temperature for 30 min and then 50 μl of CellTiter-Glo reagent (Promega Biosciences, Inc., Madison Wis., USA) were added to each well. Cell lysis was carried out at room temperature during 10 min and luminescence was read on a Fluoroskan (Thermo Scientific).
The EC50, or effective concentration 50, is the concentration of compound leading to 50% of cyto-protection in a CellTiter-Glo® viability assay based on MT4 cells infected with NL4-3 virus (table 1).

`CCCOC(C(=O)O)c1c(C)ccc(C2CC2)c1-c1ccc2c(c1)CCCO2` (centres unmarked) [Example 28, (2-chroman-6-yl-3-cyclopropyl-6-methyl-phenyl)-propoxy-acetic acid] gave an EC50 of 500 nM.
`Cc1ccc(C2CC2)c(-c2ccc3c(c2)CCCO3)c1C(OCC1CC1)C(=O)O` (centres unmarked) [Example 29, (2-chroman-6-yl-3-cyclopropyl-6-methyl-phenyl)-cyclopropyl methoxy-acetic acid] gave an EC50 of 500 nM.
For `Cc1ccc(C2CC2)c(-c2ccc3c(c2)CCCO3)c1C(OCC(F)(F)F)C(=O)O` (centres unmarked) [Example 30, (2-chroman-6-yl-3-cyclopropyl-6-methyl-phenyl)-(2,2,2-trifluoro-ethoxy)-acetic acid], the EC50 was 860 nM.
`CCCc1ccc(C)c(C(OC(C)C)C(=O)O)c1-c1ccc2c(c1)CCCO2` (centres unmarked) [Example 31] was tested, and the EC50 was 1000 nM.
With `Cc1ccc(C2CC2)c(-c2ccc3c(c2C)CCCO3)c1C(OC1CC1)C(=O)O` (centres unmarked) [Example 32, cyclopropoxy-[3-cyclopropyl-6-methyl-2-(5-methyl-chroman-6-yl)-phenyl]-acetic acid] the EC50 was 32 nM.
`Cc1ccc(C2CC2)c(-c2ccc3c(c2)CCCO3)c1C(OC1CCC1)C(=O)O` (centres unmarked) [Example 33, (2-chroman-6-yl-3-cyclopropyl-6-methyl-phenyl)-cyclobutoxy-acetic acid] showed an EC50 of 450 nM.
Molecule `Cc1ccc(C2CC2)c(-c2ccc3c(c2)CCCO3)c1C(OCC(F)F)C(=O)O` (centres unmarked) [Example 34, (2-chroman-6-yl-3-cyclopropyl-6-methyl-phenyl)-(2,2-difluoro-ethoxy)-acetic acid] has an EC50 of 440 nM.
`Cc1ccc(C2CC2)c(-c2ccc3c(c2)CCCO3)c1C(OCCF)C(=O)O` (centres unmarked) [Example 35, (2-chroman-6-yl-3-cyclopropyl-6-methyl-phenyl)-(2-fluoro-ethoxy)-acetic acid] was tested, and the EC50 was 830 nM.
`Cc1ccc(C2CC2)c(-c2ccc3c(c2)CCCO3)c1C(OC(C)C)C(=O)O` (centres unmarked) [Example 36, (2-chroman-6-yl-3-cyclopropyl-6-methyl-phenyl)-isopropoxy-acetic acid] showed an EC50 of 100 nM.
`Cc1ccc(C2CC2)c(-c2cc(F)c3c(c2C)CCCO3)c1C(OC1CC1)C(=O)O` (centres unmarked) [Example 37, cyclopropoxy-[3-cyclopropyl-2-(8-fluoro-5-methyl-chroman-6-yl)-6-methyl-phenyl]-acetic acid] was tested, and the EC50 was 24 nM.
With `Cc1ccc(C2CC2)c(-c2ccc3c(c2)CCCO3)c1C(OC1(C)CC1)C(=O)O` (centres unmarked) [Example 39, (2-chroman-6-yl-3-cyclopropyl-6-methyl-phenyl)-(1-methyl-cyclopropoxy)-acetic acid] the EC50 was 24 nM.
`CC(C)(C)OC(C(=O)O)c1c(-c2ccc3c(c2)CCCO3)c(C2CC2)cc2ncccc12` (centres unmarked) [Example 42, tert-butoxy-(6-chroman-6-yl-7-cyclopropyl-quinolin-5-yl)-acetic acid] showed an EC50 of 190 nM.
Molecule `Cc1ccc(C2CCC2)c(-c2ccc3c(c2)CCCO3)c1C(OC(C)(C)C)C(=O)O` (centres unmarked) [Example 43, tert-butoxy-(2-chroman-6-yl-3-cyclobutyl-6-methyl-phenyl)-acetic acid] has an EC50 of 94 nM.
Molecule `Cc1ccc(C2CC2)c(-c2ccc3c(c2)CCCO3)c1C(CC1CC1)C(=O)O` (centres unmarked) [Example 45, 3-cyclopropyl-2-[3-cyclopropyl-2-(3,4-dihydro-2H-1-benzopyran-6-yl)-6-methylphenyl]propanoic acid] has an EC50 of 290 nM.
Work on `Cc1ccc(C2CC2)c(-c2ccc3c(c2)CCCO3)c1C(CC(C)C)C(=O)O` (centres unmarked) [Example 46, 2-[3-cyclopropyl-2-(3,4-dihydro-2H-1-benzopyran-6-yl)-6-methylphenyl]-4-methylpentanoic acid] yielded an EC50 of 650 nM.
`Cc1ccc(C2CC2)c(-c2ccc3c(c2)CCCO3)c1C(OC1CC1(F)F)C(=O)O` (centres unmarked) [Example 47, (2-chroman-6-yl-3-cyclopropyl-6-methyl-phenyl)-(2,2-difluoro-cyclopropoxy)-acetic acid] showed an EC50 of 450 nM.
`COc1cc(C)c(C(OC2CC2)C(=O)O)c(-c2ccc3c(c2)CCCO3)c1C1CC1` (centres unmarked) [Example 56, (2-chroman-6-yl-3-cyclopropyl-4-methoxy-6-methyl-phenyl)-cyclopropoxy-acetic acid] gave an EC50 of 500 nM.
